{"source": "paper PMC6934184", "about": "“Selective DNA-PKcs inhibition extends the therapeutic index of localized radiotherapy and chemotherapy” (The Journal of Clinical Investigation, 2019)", "biological_target": "T1, CHEK2 (CHK2) (Homo sapiens, UniProt O96017)", "T1 construct": "purchased Thermo Fisher Scientific (Life Technologies) SelectScreen", "T1 sequence (O96017 whole entry)": "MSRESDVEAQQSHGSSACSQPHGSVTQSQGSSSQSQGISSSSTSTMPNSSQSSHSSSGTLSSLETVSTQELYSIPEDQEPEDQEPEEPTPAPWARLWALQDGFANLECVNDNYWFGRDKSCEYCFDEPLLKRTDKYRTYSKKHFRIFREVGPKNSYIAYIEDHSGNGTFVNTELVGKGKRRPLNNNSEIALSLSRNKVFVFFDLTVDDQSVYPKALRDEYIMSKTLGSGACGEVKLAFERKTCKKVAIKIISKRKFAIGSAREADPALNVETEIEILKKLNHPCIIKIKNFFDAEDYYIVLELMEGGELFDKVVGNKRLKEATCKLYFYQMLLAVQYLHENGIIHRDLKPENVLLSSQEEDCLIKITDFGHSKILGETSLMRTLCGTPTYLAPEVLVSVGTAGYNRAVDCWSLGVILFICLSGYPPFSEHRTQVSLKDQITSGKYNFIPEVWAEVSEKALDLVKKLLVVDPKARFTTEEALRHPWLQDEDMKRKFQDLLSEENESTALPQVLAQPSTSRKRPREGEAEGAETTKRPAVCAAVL", "test": "SelectScreen Z'LYTE", "type": "biochemical", "procedure,_shortened": "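Compound tested in SelectScreen activity assays, Z'LYTE for CSF1R, CDK1/cyclin B and MAP2K6 and Adapta for CAMK1. ATP for CAMK1 was listed as 10, and Km app was used for CSF1R. Results are expressed in percent.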", "data": [{"smiles": "CN(C(=O)CN1CCOCC1)c1ccc2sc3c(-c4cccc5c(=O)cc(N6CC7CCC(C6)O7)oc45)cccc3c2c1", "note": "[NU5455]", "values": [{"measurement": "inhibition at 1 µM", "result": -11.7, "unit": "%"}]}]}
